ChEMBL document CHEMBL5614421, “Structure-activity relationship study of Pseudellone C as anti-glioma agents by targeting TNF/TNFR signaling pathway” (Eur J Med Chem, 2024)

Key:
U-87 MG [1] = assay: Antiproliferative activity against human U-87 MG cells assessed as inhibition of cell growth incubated for 68 hrs by CCK-8 assay; type: functional, cell-based, U-87MG ATCC
LN-229 [2] = assay: Antiproliferative activity against human LN-229 cells assessed as inhibition of cell growth incubated for 68 hrs by CCK-8 assay; type: functional, cell-based; conditions: LN-229, 68 h
U-87 MG [3] = assay: Induction of apoptosis in human U-87 MG cells assessed as viable cells at 5 uM incubated for 24 hrs by Annexin V-APC/7-AAD staining based flow cytometric analysis (reference value: 85 %); type: functional, U-87MG ATCC; conditions: read-out: Activity
U-87 MG [4] = assay: Induction of apoptosis in human U-87 MG cells assessed as early apoptotic cells at 5 uM incubated for 24 hrs by Annexin V-APC/7-AAD staining based flow cytometric analysis (reference value: 3.44 %); type: functional, U-87MG ATCC
U-87 MG [5] = assay: Induction of apoptosis in human U-87 MG cells assessed as late apoptotic cells at 5 uM incubated for 24 hrs by Annexin V-APC/7-AAD staining based flow cytometric analysis (reference value: 7.7 %); type: functional, U-87MG ATCC
U-87 MG [6] = assay: Induction of apoptosis in human U-87 MG cells assessed as necrotic cells at 5 uM incubated for 24 hrs by Annexin V-APC/7-AAD staining based flow cytometric analysis (reference value: 3.85 %); type: functional, U-87MG ATCC
LN-229 [7] = assay: Induction of apoptosis in human LN-229 cells assessed as viable cells at 5 uM incubated for 24 hrs by Annexin V-APC/7-AAD staining based flow cytometric analysis (reference value: 92.3 %); type: functional; conditions: read-out: Activity
LN-229 [8] = assay: Induction of apoptosis in human LN-229 cells assessed as early apoptotic cells at 5 uM incubated for 24 hrs by Annexin V-APC/7-AAD staining based flow cytometric analysis (reference value: 0.91 %); type: functional
LN-229 [9] = assay: Induction of apoptosis in human LN-229 cells assessed as late apoptotic cells at 5 uM incubated for 24 hrs by Annexin V-APC/7-AAD staining based flow cytometric analysis (reference value: 4.86 %); type: functional
LN-229 [10] = assay: Induction of apoptosis in human LN-229 cells assessed as necrotic cells at 5 uM incubated for 24 hrs by Annexin V-APC/7-AAD staining based flow cytometric analysis (reference value: 1.95 %); type: functional

Compound | IC50 (U-87 MG [1]) | IC50 (LN-229 [2]) | also measured
CCCCCCCCCCCCOC(=O)[C@H](Cc1c[nH]c2ccccc12)NC(=O)C(C)(c1c[nH]c2ccccc12)c1c[nH]c2ccccc12 | 54.9 µM | > 50 µM | –
CC(C(=O)N[C@@H](Cc1c[nH]c2ccccc12)C(=O)OCC1CCOCC1)(c1c[nH]c2ccccc12)c1c[nH]c2ccccc12 | 29.2 µM | > 50 µM | –
CCCCCCOC(=O)[C@H](Cc1c[nH]c2ccccc12)NC(=O)C(C)(c1c[nH]c2ccccc12)c1c[nH]c2ccccc12 | 7.54 µM | 12.5 µM | –
CCCCCCCCCNC(=O)[C@H](Cc1c[nH]c2ccccc12)NC(=O)C(C)(c1c[nH]c2ccccc12)c1c[nH]c2ccccc12 | 9.68 µM | 7.17 µM | –
CCCCOC(=O)[C@H](Cc1c[nH]c2ccccc12)NC(=O)C(C)(c1c[nH]c2ccccc12)c1c[nH]c2ccccc12 | 21.7 µM | 20.2 µM | –
CC(C)CCOC(=O)[C@H](Cc1c[nH]c2ccccc12)NC(=O)C(C)(c1c[nH]c2ccccc12)c1c[nH]c2ccccc12 | 17.3 µM | 20.4 µM | –
CCCCCCCCCCCCNC(=O)[C@H](Cc1c[nH]c2ccccc12)NC(=O)C(C)(c1c[nH]c2ccccc12)c1c[nH]c2ccccc12 | 12 µM | 10.8 µM | –
CC(C)CNC(=O)[C@H](Cc1c[nH]c2ccccc12)NC(=O)C(C)(c1c[nH]c2ccccc12)c1c[nH]c2ccccc12 | > 50 µM | > 50 µM | –
COC(=O)[C@H](Cc1c[nH]c2ccccc12)NC(=O)C(C)(c1cn(C)c2ccccc12)c1cn(C)c2ccccc12 | 59.3 µM | > 50 µM | –
CC(C)CCCOC(=O)[C@H](Cc1c[nH]c2ccccc12)NC(=O)C(C)(c1c[nH]c2ccccc12)c1c[nH]c2ccccc12 | 8.3 µM | 12.2 µM | –
CC(C(=O)N[C@@H](Cc1c[nH]c2ccccc12)C(=O)NCC1CCOCC1)(c1c[nH]c2ccccc12)c1c[nH]c2ccccc12 | > 50 µM | > 50 µM | –
CC(C(=O)N[C@@H](Cc1c[nH]c2ccccc12)C(=O)NCc1ccco1)(c1c[nH]c2ccccc12)c1c[nH]c2ccccc12 | 46.1 µM | 17.9 µM | –
Cc1ccc(CNC(=O)[C@H](Cc2c[nH]c3ccccc23)NC(=O)C(C)(c2c[nH]c3ccccc23)c2c[nH]c3ccccc23)cc1 | 41.3 µM | > 50 µM | –
CCCCCCCCCCNC(=O)[C@H](Cc1c[nH]c2ccccc12)NC(=O)C(C)(c1c[nH]c2ccccc12)c1c[nH]c2ccccc12 | 7.23 µM | 6.07 µM | –
CCCCCNC(=O)[C@H](Cc1c[nH]c2ccccc12)NC(=O)C(C)(c1c[nH]c2ccccc12)c1c[nH]c2ccccc12 | 19.4 µM | 18.8 µM | –
CC(C)OC(=O)[C@H](Cc1c[nH]c2ccccc12)NC(=O)C(C)(c1c[nH]c2ccccc12)c1c[nH]c2ccccc12 | 23.5 µM | > 50 µM | –
CCCCCCCCCCCCCCNC(=O)[C@H](Cc1c[nH]c2ccccc12)NC(=O)C(C)(c1c[nH]c2ccccc12)c1c[nH]c2ccccc12 | > 50 µM | > 50 µM | –
CCCCCCNC(=O)C(C)(c1c[nH]c2ccccc12)c1c[nH]c2ccccc12 | > 50 µM | > 50 µM | –
C#CCNC(=O)[C@H](Cc1c[nH]c2ccccc12)NC(=O)C(C)(c1c[nH]c2ccccc12)c1c[nH]c2ccccc12 | 36.4 µM | 17.4 µM | –
CNC(=O)[C@H](Cc1c[nH]c2ccccc12)NC(=O)C(C)(c1c[nH]c2ccccc12)c1c[nH]c2ccccc12 | 46.3 µM | 23.2 µM | –
COC(=O)[C@H](Cc1c[nH]c2ccccc12)NC(=O)C(C)(c1c[nH]c2c(F)cccc12)c1c[nH]c2c(F)cccc12 | 15 µM | 5.52 µM | –
CCCCCCCNC(=O)C(C)(c1c[nH]c2ccccc12)c1c[nH]c2ccccc12 | > 50 µM | > 50 µM | –
CCCCCCCCNC(=O)[C@H](Cc1c[nH]c2ccccc12)NC(=O)C(C)(c1c[nH]c2ccccc12)c1c[nH]c2ccccc12 | 10.7 µM | 16.1 µM | –

Compound | IC50 (U-87 MG [1]) | IC50 (LN-229 [2]) | also measured
CC(C(=O)N[C@@H](Cc1c[nH]c2ccccc12)C(=O)NC[C@@H]1CCCO1)(c1c[nH]c2ccccc12)c1c[nH]c2ccccc12 | > 50 µM | 23.5 µM | –
Cn1nnc2c(C(N)=O)ncn2c1=O [TEMOZOLOMIDE] | 113 µM | > 500 µM | –
CCCCCCCCCOC(=O)[C@H](Cc1c[nH]c2ccccc12)NC(=O)C(C)(c1c[nH]c2ccccc12)c1c[nH]c2ccccc12 | 12.3 µM | 12.6 µM | –
CCCCCCCCCCOC(=O)[C@H](Cc1c[nH]c2ccccc12)NC(=O)C(C)(c1c[nH]c2ccccc12)c1c[nH]c2ccccc12 | 19.9 µM | 13.1 µM | –
CCCCCCCOC(=O)[C@H](Cc1c[nH]c2ccccc12)NC(=O)C(C)(c1c[nH]c2ccccc12)c1c[nH]c2ccccc12 | 10.7 µM | 10.5 µM | –
CC(C(=O)N[C@@H](Cc1c[nH]c2ccccc12)C(=O)NC[C@H]1CCCO1)(c1c[nH]c2ccccc12)c1c[nH]c2ccccc12 | > 50 µM | 21.3 µM | –
CNC(=O)[C@@H](NC(=O)C(C)(c1c[nH]c2ccccc12)c1c[nH]c2ccccc12)C(=O)c1c[nH]c2ccccc12 | 168 µM | > 100 µM | –
COC(=O)[C@H](Cc1c[nH]c2ccccc12)NC(=O)C(C)(c1c[nH]c2cccc(F)c12)c1c[nH]c2cccc(F)c12 | 22.1 µM | 10.8 µM | –
CC(C)CCNC(=O)[C@H](Cc1c[nH]c2ccccc12)NC(=O)C(C)(c1c[nH]c2ccccc12)c1c[nH]c2ccccc12 | 16.9 µM | 12.7 µM | –
COC(=O)[C@H](Cc1c[nH]c2ccccc12)NC(=O)C(C)(c1c[nH]c2c(Br)cccc12)c1c[nH]c2c(Br)cccc12 | 7.34 µM | 8.71 µM | –
CC(C(=O)N[C@@H](Cc1c[nH]c2ccccc12)C(=O)NCC1CC1)(c1c[nH]c2ccccc12)c1c[nH]c2ccccc12 | > 50 µM | > 50 µM | –
CC(C(=O)O)(c1c[nH]c2ccccc12)c1c[nH]c2ccccc12 | > 50 µM | > 50 µM | –
Cc1ccc(CNC(=O)C(C)(c2c[nH]c3ccccc23)c2c[nH]c3ccccc23)cc1 | > 50 µM | > 50 µM | –
COC(=O)[C@H](Cc1c[nH]c2ccccc12)NC(=O)C(C)(c1c[nH]c2cc(Br)ccc12)c1c[nH]c2cc(Br)ccc12 | 4.81 µM | 6.62 µM | –
CC(C(=O)N[C@@H](Cc1c[nH]c2ccccc12)C(=O)NC1CC1)(c1c[nH]c2ccccc12)c1c[nH]c2ccccc12 | > 50 µM | > 50 µM | –
COCCCNC(=O)[C@H](Cc1c[nH]c2ccccc12)NC(=O)C(C)(c1c[nH]c2ccccc12)c1c[nH]c2ccccc12 | > 50 µM | 19.4 µM | –
CCCCCCNC(=O)[C@H](Cc1c[nH]c2ccccc12)NC(=O)C(C)(c1c[nH]c2ccccc12)c1c[nH]c2ccccc12 | 16 µM | 25.5 µM | –
COc1ccc(CNC(=O)C(C)(c2c[nH]c3ccccc23)c2c[nH]c3ccccc23)cc1 | > 50 µM | > 50 µM | –
FC(F)(F)c1nnc2c(Sc3ccccc3)nc3ccc(Cl)cc3n12 | – | – | viability at 5 µM (U-87 MG [3]): 82.7%; Activity (U-87 MG [4]): 10%; Activity (U-87 MG [5]): 5.1%; Activity (U-87 MG [6]): 2.24%; viability at 5 µM (LN-229 [7]): 76.1%; Activity (LN-229 [8]): 14.6%; Activity (LN-229 [9]): 8.42%; Activity (LN-229 [10]): 0.97%
COC(=O)[C@H](Cc1c[nH]c2ccccc12)NC(=O)C(C)(c1c[nH]c2ccc(C(F)(F)F)cc12)c1c[nH]c2ccc(C(F)(F)F)cc12 | 7.74 µM | 5.52 µM | –
COC(=O)[C@H](Cc1c[nH]c2ccccc12)NC(=O)C(C)(c1c[nH]c2ccccc12)c1c[nH]c2ccccc12 | 17 µM | 36.9 µM | –
CC(C(=O)N[C@@H](Cc1c[nH]c2ccccc12)C(=O)O)(c1c[nH]c2ccccc12)c1c[nH]c2ccccc12 | > 50 µM | > 50 µM | –
